These are literature values, as cited in US8632826B2, “Cosmetic wrinkle treatment method based on a zanthoxylum bungeanum extract” (Indena S.p.A., priority 2009, dated 2014).

The data set has as its system thrombosis.

For `COc1ccc2c(c[n+](C)c3c4cc5c(cc4ccc23)OCO5)c1OC` [chelcrythrine], the “activity in the prevention of thrombosis” value is given as “active in the prevention of thrombosis”.
